{
  "source": "patent US6472370B1",
  "about": "“Anticonvulsant derivatives useful in treating post traumatic stress disorder” (Ortho-McNeil Pharmaceutical, Inc., priority 1998, dated 2002)",
  "origin": "cited, not measured here",
  "key": {"[1]": {"test_system": "simple and complex partial seizures and secondarily generalized seizures", "conditions": "clinical trials of human epilepsy; adjunctive therapy or monotherapy"}, "[2]": {"test_system": "seizures in several rodent models of epilepsy"}, "kindling seizures": {"test_system": "kindling seizures", "conditions": "animal (rodent) model of kindling"}},
  "note": "Read-outs that look alike come from different tables or passages of the source.",
  "data": [
    {"compound": "CC1(C)O[C@@H]2[C@@H](CO[C@@]3(COS(N)(=O)=O)OC(C)(C)O[C@@H]23)O1", "note": "[topiramate, 2,3:4,5-bis-O-(1-methylethylidene)-β-D-fructopyranose sulfamate]", "values": [
      {"measurement": "efficacy in treating simple and complex partial seizures and secondarily generalized seizures", "setting": "[1]", "result": "effective"},
      {"measurement": "block of seizures", "setting": "[2]", "result": "effectively block seizures"},
      {"measurement": "block of seizures in kindled epilepsy / kindling seizures", "setting": "kindling seizures", "result": "effectively block seizures"},
      {"measurement": "block of seizures in kindled epilepsy / kindling seizures", "setting": "kindling seizures; listed as Topiramate", "result": "effective"}
    ]}
  ]
}
